We go through four molecules from patent US20250059195A1, “TRIAZOLONE DERIVATIVE SALT AS NEUTROPHIL ELASTASE INHIBITOR” (CHIESI FARMACEUTICI S.P.A., priority 2021, published 2025).

Where two headings read alike, the source gives them in different places.

For data set [1] the following is noted: rat, in vivo.
Description: (§1) Male Wistar rats were dosed by the snout-only inhalation route with (2-{5-Cyano-2-[(R)-6-methoxycarbonyl-7-methyl-3-oxo-8-(3-trifluoromethyl-phenyl)-2,3,5,8-tetrahydro-[1,2,4]triazolo[4,3-a]pyrimidin-5-yl]-phenyl}-ethyl)-trimethyl-ammonium methanesulfonate salt (described in WO 2014/095700), (2-{5-Cyano-2-[(R)-6-methoxycarbonyl-7-methyl-3-oxo-8-(3-trifluoromethyl-phenyl)-2,3,5,8-tetrahydro-[1,2,4]triazolo[4,3-a]pyrimidin-5-yl]-phenyl}-ethyl)-trimethyl-ammonium xinafoate salt (I) and (2-{5-Cyano-2-[(R)-6-methoxycarbonyl-7-methyl-3-oxo-8-(3-trifluoromethyl-phenyl)-2,3,5,8-tetrahydro-[1,2,4]triazolo[4,3-a]pyrimidin-5-yl]-phenyl}-ethyl)-trimethyl-ammonium acetate salt (which is described in WO 2014/095700), (2-{5-Cyano-2-[(R)-6-methoxycarbonyl-7-methyl-3-oxo-8-(3-trifluoromethyl-phenyl)-2,3,5,8-tetrahydro-[1,2,4]triazolo[4,3-a]pyrimidin-5-yl]-phenyl}-ethyl)-trimethyl-ammonium bromide salt (whose synthesis is described in WO 2014/095700) or lactose (vehicle) given as dry powder formulations. The duration of aerosol exposure was of 60 minutes. On the day of dosing, animals were placed into the plethysmograph tubes for at least 30 minutes prior to dosing and respiratory parameters: respiratory rate, tidal volume, and PenH were continuously recorded for at least 30 minutes pre-dose, 60 minutes during dosing (exposure) and 90 minutes post-exposure. The respiratory parameters were recorded every minute for a total period of 3 hours using the EMMS eDacq system (PLY231, EMMS, Bordon, United Kingdom).
For data set [2], the target named is T1, human neutrophil elastase (HNE) (Homo sapiens, UniProt P08246).
T1 sequence (P08246 30-267): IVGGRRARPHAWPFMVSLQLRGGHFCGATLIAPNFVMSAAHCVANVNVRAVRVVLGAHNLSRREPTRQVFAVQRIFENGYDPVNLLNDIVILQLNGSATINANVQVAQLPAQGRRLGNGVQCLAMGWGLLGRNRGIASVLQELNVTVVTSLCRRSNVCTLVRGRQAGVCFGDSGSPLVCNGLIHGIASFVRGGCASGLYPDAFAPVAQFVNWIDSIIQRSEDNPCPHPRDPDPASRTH
Description: HNE-induced lung injury assay (BAL fluid haemoglobin content). It counts as in vivo, rat. The following applies: for % Inhibition at 300 μg/Kg (inhibition of HNE-induced haemoglobin content in BALF) / % Inhibition at 600 μg/Kg (inhibition of HNE-induced haemoglobin content in BALF): male Sprague Dawley rats, dry powder nose-only inhalation 3 hours prior to HNE i.t. 100 U/rat, vs HNE-treated vehicle control; for % Inhibition at 300 μg/Kg (inhibition of HNE-induced haemoglobin content in BALF): 300 μg/Kg (0.3 mg/kg); for % Inhibition at 600 μg/Kg (inhibition of HNE-induced haemoglobin content in BALF): 600 μg/Kg (0.6 mg/kg); for inhibition of BAL fluid haemoglobin content, dose dependence: inhalation as dry powder formulation at 0.03, 0.3 and 0.6 mg/kg. As for the experimental part:
Then, one hour after the PBS or HNE administration animals were sacrificed and bronchoalveolar lavage (BAL) was performed in order to assess the HNE-induced lung injury measured as haemoglobin concentration.
BAL fluid samples were centrifuged at 800 g for 15 min at 4° C. The supernatant was collected and the pellet was re-suspended in 3 mL of distilled water. A standard curve with known volumes of lysated blood cells was made from a stem solution of lysated blood cells. 150 μL of standards and samples were transferred in duplicate to a 96-well plate and the OD measured at 412 nm.
Percentage of compound efficacy (assessed as inhibition of HNE-induced haemoglobin content in BALF) was calculated following this formula: 100−[(mean of haemoglobin concentration of test compound treated rats exposed to HNE)−(mean of haemoglobin concentration of vehicle treated rats exposed to PBS)]/[(mean of haemoglobin concentration of vehicle treated rats exposed to HNE)−(mean of haemoglobin concentration of vehicle treated rats exposed to PBS)]×100.

A short description of data set [3]: Solubility in water of different salts. It counts as physicochemical. The following applies: water at RT. The protocol:
The complete dissolution of the material was visually observed. […] From this experiment the xinafoate salt has a solubility lower than 0.05 mg/ml.

The nature of data set [4]: Head-out plethysmography (HOP) assay, lung function parameters. The conditions noted are these: rats, dry powder snout-only inhalation.
Description: as §1
Where [5] appears, read: male, Wistar, 0.6 mg/kg, 60 min.

On to `CC(=O)[O-].COC(=O)C1=C(C)N(c2cccc(C(F)(F)F)c2)c2n[nH]c(=O)n2[C@@H]1c1ccc(C#N)cc1CC[N+](C)(C)C` [Acetate, (2-{5-Cyano-2-[(R)-6-methoxycarbonyl-7-methyl-3-oxo-8-(3-trifluoromethyl-phenyl)-2,3,5,8-tetrahydro-[1,2,4]triazolo[4,3-a]pyrimidin-5-yl]-phenyl}-ethyl)-trimethyl-ammonium acetate salt], for which, in data set [1] (male, Wistar, 7 mg/kg, 60 min), the “increase in PenH area” value is “about 9 fold”; the “increase in respiratory rate, maximum effect vs vehicle” value was found to be 51%; the “reduced tidal volume, maximum decrease vs vehicle control” value is given as 50%. The “% of Reduction of tidal volume at the highest tested dose” value (from here on “% of Reduction of tidal volume”) in data set [1] (male, Wistar, 60 min) is 50%.
As a reminder, the % Inhibition is the change of the read-out against control, counted positive when it falls. Higher therefore signals a strong effect. `COC(=O)C1=C(C)N(c2cccc(C(F)(F)F)c2)c2n[nH]c(=O)n2[C@@H]1c1ccc(C#N)cc1CC[N+](C)(C)C.CS(=O)(=O)[O-]` [Methanesulfonate, (2-{5-Cyano-2-[(R)-6-methoxycarbonyl-7-methyl-3-oxo-8-(3-trifluoromethyl-phenyl)-2,3,5,8-tetrahydro-[1,2,4]triazolo[4,3-a]pyrimidin-5-yl]-phenyl}-ethyl)-trimethyl-ammonium methanesulfonate]: in data set [2], the “% Inhibition at 300 μg/Kg (inhibition of HNE-induced haemoglobin content in BALF)” value is 20% and the “% Inhibition at 600 μg/Kg (inhibition of HNE-induced haemoglobin content in BALF)” value was 25%. Further, the “inhibition of BAL fluid haemoglobin content, dose dependence” value in data set [2] (rats) was “dose-dependent inhibition”. In data set [1] (setting [5]), the “increase of PenH compared to vehicle group” value is on record as “about 8 fold”; the “increase of respiratory rate, peak effect vs vehicle (lactose)” value stood at 32%; the “reduction of tidal volume, peak effect vs vehicle” value was 35%. Moreover, in data set [1] (male, Wistar, 6 mg/kg, 60 min), the “increase of PenH compared to vehicle group” value is on record as approximately 16 fold; the “increase of respiratory rate, peak effect vs vehicle (lactose)” value was found to be 54%; the “reduction of tidal volume, peak effect vs vehicle” value came to 39%. Further, in data set [1] (male, Wistar, 60 min), the “% of Reduction of tidal volume” value is on record as 35-39%.
Regarding `COC(=O)C1=C(C)N(c2cccc(C(F)(F)F)c2)c2n[nH]c(=O)n2[C@@H]1c1ccc(C#N)cc1CC[N+](C)(C)C` [Xinafoate, (2-{5-Cyano-2-[(R)-6-methoxycarbonyl-7-methyl-3-oxo-8-(3-trifluoromethyl-phenyl)-2,3,5,8-tetrahydro-[1,2,4]triazolo[4,3-a]pyrimidin-5-yl]-phenyl}-ethyl)-trimethyl-ammonium xinafoate], the solubility in data set [3] (thermodynamic from solid, read-out: Solubility (mg/ml) in water) was less than 0.05 mg/mL. The “Solubility (mg/ml) in water” value in data set [3] was less than 0.05 mg/mL. For the same molecule, in data set [2], the “% Inhibition at 300 μg/Kg (inhibition of HNE-induced haemoglobin content in BALF)” value was 35% and the “% Inhibition at 600 μg/Kg (inhibition of HNE-induced haemoglobin content in BALF)” value was determined as 80%. The “efficacy in inhibiting HNE in vivo, comparison of the salts” value in data set [2] (rats, dry powder inhalation) is on record as “superior efficacy than the methanesulfonate salt”. Besides, the “inhibition of BAL fluid haemoglobin content, dose dependence” value in data set [2] (rats) is given as “dose-dependent inhibition”. For the same molecule, the “% of Reduction of tidal volume” value in data set [1] is reported as “No variation of any lung function parameters”.
In the case of `COC(=O)C1=C(C)N(c2cccc(C(F)(F)F)c2)c2n[nH]c(=O)n2[C@@H]1c1ccc(C#N)cc1CC[N+](C)(C)C.[Br-]` [Bromide, (2-{5-Cyano-2-[(R)-6-methoxycarbonyl-7-methyl-3-oxo-8-(3-trifluoromethyl-phenyl)-2,3,5,8-tetrahydro-[1,2,4]triazolo[4,3-a]pyrimidin-5-yl]-phenyl}-ethyl)-trimethyl-ammonium bromide salt], the entries for the “increase in PenH area compared to vehicle” value in data set [4] (high dose (5.5 mg/kg)) and in data set [4] (low dose (0.55 mg/kg)) were approximately 20 fold and “about 8 fold”, respectively. Further, the “reduction in tidal volume, maximum vs vehicle” value in data set [4] (high dose (5.5 mg/kg), during inhalation) is listed as 38%. In data set [4] (low dose (0.55 mg/kg), during inhalation), the “increase in respiratory rate, maximum effect vs vehicle” value came to 59%. Moreover, the “% of Reduction of tidal volume” value in data set [4] (peak effect vs vehicle (lactose)) was determined as 38%.
